According to patent publication US20240228458A1, “PYRIMIDINE DERIVATIVE HAVING PROTEIN KINASE INHIBITORY ACTIVITY, AND THERAPEUTIC PHARMACEUTICAL COMPOSITION COMPRISING SAME” (THERAPEX CO., LTD., priority 2021, published 2024):

Experiments:
Type in all cases: cell-based
[1] = system: Ba/F3 cells expressing L858R/T790M/C797S (EGFR-LTC); experiment: Growth inhibition (GI50) of Ba/F3 cells expressing L858R/T790M/C797S (EGFR-LTC), Celltiter glo; conditions: Mus musculus, BaF3, 72 h
Outline: (§1)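 Antiproliferative activity was assessed in EGFR-mutant or wild-type Ba/F3 cells over 72 h at 37 °C with 5% CO2. Cell viability was determined by CellTiter-Glo, and GI50 taken as the compound concentration inhibiting growth by 50%.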

[2] = system: parental Ba/F3 cell line; experiment: Growth inhibition (GI50) of the parental Ba/F3 cell line (not introduced with EGFR variants), Celltiter glo; conditions: Mus musculus, BaF3, 72 h, parental Ba/F3 cells
Outline: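 Parental Ba/F3 cells (100,000 cells/ml) were treated with 10-point, 4-fold compound dilutions (0.5% DMSO; top stock 2 mM) for 72 h at 37 °C, 5% CO2. Viability was read by CellTiter-Glo; GI50 is the concentration (μM) giving 50% growth inhibition.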

[3] = system: Ba/F3 cells expressing del19/T790M/C797S (EGFR-DTC); experiment: Growth inhibition (GI50) of Ba/F3 cells expressing del19/T790M/C797S (EGFR-DTC), Celltiter glo; conditions: Mus musculus, BaF3, 72 h
Outline: as §1

[4] = system: Ba/F3 cells expressing EGFR-wt; experiment: Growth inhibition (GI50) of Ba/F3 cells expressing EGFR-wt, Celltiter glo; conditions: Mus musculus, BaF3, 72 h
Outline: as §1

[5] = system: Ba/F3 cells expressing L858R/T790M (EGFR-LT); experiment: Growth inhibition (GI50) of Ba/F3 cells expressing L858R/T790M (EGFR-LT), Celltiter glo; conditions: Mus musculus, BaF3, 72 h
Outline: as §1

[6] = system: Ba/F3 cells expressing del19/T790M (EGFR-DT); experiment: Growth inhibition (GI50) of Ba/F3 cells expressing del19/T790M (EGFR-DT), Celltiter glo; conditions: Mus musculus, BaF3, 72 h
Outline: as §1

| SMILES | GI50 [1] [nM] | GI50 [2] [nM] | GI50 [3] [nM] | GI50 [4] [nM] | GI50 [5] [nM] | GI50 [6] [nM] |
| --- | --- | --- | --- | --- | --- | --- |
| COc1ccc(NS(C)(=O)=O)c(Nc2nc(Nc3cc(Cl)c(N4CCC(N5CCCC(N(C)C)C5)CC4)cc3OC)ncc2Cl)c1 (stereo not drawn) [Example 237, N-(2-((5-chloro-2-((5-chloro-4-(3-(dimethylamino)-[1,4′-bipiperidin]-1′-yl)-2-methoxyphenyl)amino)pyrimidin-4-yl)amino)-4-methoxyphenyl)methanesulfonamide] | 1 to 25 | 2000 to 10000 | 100 to 500 | 500 to 2000 | 1 to 25 | 100 to 500 |
| COc1nc(N2CCCN(C)CC2)ccc1Nc1ncc(Br)c(Nc2cc3c(cc2NS(C)(=O)=O)CCO3)n1 [Example 238, N-(6-((5-bromo-2-((2-methoxy-6-(4-methyl-1,4-diazepan-1-yl)pyridin-3-yl)amino)pyrimidin-4-yl)amino)-2,3-dihydrobenzofuran-5-yl)methanesulfonamide] | 100 to 500 | 2000 to 10000 | 2000 to 10000 | 2000 to 10000 | 100 to 500 | 2000 to 10000 |
| CN1CCN(C2CCN(c3ncc(Nc4ncc(Br)c(Nc5cc6c(cc5NS(C)(=O)=O)CCO6)n4)cc3F)CC2)CC1 [Example 239, N-(6-((5-bromo-2-((5-fluoro-6-(4-(4-methylpiperazin-1-yl)piperidin-1-yl)pyridin-3-yl)amino)pyrimidin-4-yl)amino)-2,3-dihydrobenzofuran-5-yl)methanesulfonamide] | 100 to 500 | 2000 to 10000 | 500 to 2000 | 500 to 2000 | 25 to 100 | 25 to 100 |
| COc1nc(N2CCC(N3CCN(C)CC3)CC2)c(C)cc1Nc1ncc(Br)c(Nc2cc3c(cc2NS(C)(=O)=O)CCO3)n1 [Example 240, N-(6-((5-bromo-2-((2-methoxy-5-methyl-6-(4-(4-methylpiperazin-1-yl)piperidin-1-yl)pyridin-3-yl)amino)pyrimidin-4-yl)amino)-2,3-dihydrobenzofuran-5-yl)methanesulfonamide] | 1 to 25 | 2000 to 10000 | 100 to 500 | 500 to 2000 | 1 to 25 | 100 to 500 |
| COc1nc(N2CCC(N3CCN(C)CC3)CC2)c(C)cc1Nc1ncc(Cl)c(Nc2cc3c(cc2NS(C)(=O)=O)CCO3)n1 [Example 241, N-(6-((5-chloro-2-((2-methoxy-5-methyl-6-(4-(4-methylpiperazin-1-yl)piperidin-1-yl)pyridin-3-yl)amino)pyrimidin-4-yl)amino)-2,3-dihydrobenzofuran-5-yl)methanesulfonamide] | 25 to 100 | 2000 to 10000 | 100 to 500 | 500 to 2000 | 1 to 25 | 100 to 500 |
| CN1CCN(C2CCN(c3ncc(Nc4ncc(Cl)c(Nc5cc6c(cc5NS(C)(=O)=O)CCO6)n4)cc3F)CC2)CC1 [Example 242, N-(6-((5-chloro-2-((5-fluoro-6-(4-(4-methylpiperazin-1-yl)piperidin-1-yl)pyridin-3-yl)amino)pyrimidin-4-yl)amino)-2,3-dihydrobenzofuran-5-yl)methanesulfonamide] | 25 to 100 | 2000 to 10000 | 2000 to 10000 | 2000 to 10000 | 1 to 25 | 500 to 2000 |
| COc1cc(N2CCC(N3CCN(C)CC3)CC2)ccc1Nc1ncc(Br)c(Nc2cc3c(cc2NS(C)(=O)=O)CCO3)n1 [Example 243, N-(6-((5-bromo-2-((2-methoxy-4-(4-(4-methylpiperazin-1-yl)piperidin-1-yl)phenyl)amino)pyrimidin-4-yl)amino)-2,3-dihydrobenzofuran-5-yl)methanesulfonamide] | 1 to 25 | 2000 to 10000 | 100 to 500 | 500 to 2000 | 1 to 25 | 100 to 500 |
| CN1CCN(C2CCN(c3ccc(Nc4ncc(Br)c(Nc5cc6c(cc5NS(C)(=O)=O)CCO6)n4)cc3F)CC2)CC1 [Example 244, N-(6-((5-bromo-2-((3-fluoro-4-(4-(4-methylpiperazin-1-yl)piperidin-1-yl)phenyl)amino)pyrimidin-4-yl)amino)-2,3-dihydrobenzofuran-5-yl)methanesulfonamide] | 1 to 25 | 100 to 500 | 25 to 100 | 25 to 100 | 1 to 25 | 1 to 25 |
| COc1cc(N2CCC(N3CCC(C(F)(F)F)CC3)CC2)c(C)cc1Nc1ncc(Br)c(Nc2cc3c(cc2NS(C)(=O)=O)CCO3)n1 [Example 245, N-(6-((5-bromo-2-((2-methoxy-5-methyl-4-(4-(trifluoromethyl)-[1,4′-bipiperidin]-1′-yl)phenyl)amino)pyrimidin-4-yl)amino)-2,3-dihydrobenzofuran-5-yl)methanesulfonamide] | 1 to 25 | 2000 to 10000 | 25 to 100 | 2000 to 10000 | 1 to 25 | 100 to 500 |
| CN1CCN(C2CCN(c3ccc(Nc4ncc(Br)c(Nc5cc6c(cc5NS(C)(=O)=O)CCO6)n4)c(Cl)c3)CC2)CC1 [Example 246] | 1 to 25 | 2000 to 10000 | 100 to 500 | 500 to 2000 | 1 to 25 | 100 to 500 |
| CN1CCN(C2CCN(c3ccc4cc(Nc5ncc(Br)c(Nc6cc7c(cc6NS(C)(=O)=O)CCO7)n5)ccc4n3)CC2)CC1 [Example 247, N-(6-((5-bromo-2-((2-(4-(4-methylpiperazin-1-yl)piperidin-1-yl)quinolin-6-yl)amino)pyrimidin-4-yl)amino)-2,3-dihydrobenzofuran-5-yl)methanesulfonamide] | 100 to 500 | 2000 to 10000 | 100 to 500 | 500 to 2000 | 100 to 500 | 25 to 100 |
| COc1cc(N2CCC(N3CCN(C)CC3)CC2)c(C)cc1Nc1ncc(Cl)c(Nc2cc3c(cc2N(C)S(C)(=O)=O)CCO3)n1 [Example 248, N-(6-((5-chloro-2-((2-methoxy-5-methyl-4-(4-(4-methylpiperazin-1-yl)piperidin-1-yl)phenyl)amino)pyrimidin-4-yl)amino)-2,3-dihydrobenzofuran-5-yl)-N-methylmethanesulfonamide] | 1 to 25 | 2000 to 10000 | 25 to 100 | 100 to 500 | 1 to 25 | 1 to 25 |
| COc1cc(N2CCC(N3CCN(C)CC3)CC2)c(Cl)cc1Nc1ncc(Cl)c(Nc2cc3c(cc2N(C)S(C)(=O)=O)CCO3)n1 [Example 249, N-(6-((5-chloro-2-((5-chloro-2-methoxy-4-(4-(4-methylpiperazin-1-yl)piperidin-1-yl)phenyl)amino)pyrimidin-4-yl)amino)-2,3-dihydrobenzofuran-5-yl)-N-methylmethanesulfonamide] | 1 to 25 | 2000 to 10000 | 25 to 100 | 100 to 500 | 1 to 25 | 1 to 25 |
| COc1cc(N2CCC(N3CCN(C)CC3)CC2)c(C)cc1Nc1ncc(Br)c(Nc2cc3c(cc2N(C)S(C)(=O)=O)CCO3)n1 [Example 250, N-(6-((5-bromo-2-((2-methoxy-5-methyl-4-(4-(4-methylpiperazin-1-yl)piperidin-1-yl)phenyl)amino)pyrimidin-4-yl)amino)-2,3-dihydrobenzofuran-5-yl)-N-methylmethanesulfonamide] | 1 to 25 | 2000 to 10000 | 1 to 25 | 100 to 500 | 1 to 25 | 1 to 25 |
